Read-outs that look alike come from different tables or passages of the source.
How the values were obtained:
human recombinant BACE1 = human recombinant BACE1 (Homo sapiens (Human), UniProt P56817); experiment: In vitro enzymatic BACE1 FRET assay; format: biochemical; details: read-out: IC50 IP (μM) BACE1 enzyme
Summary of the method: (§1)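 Reactions were initiated by adding 50 nM of a peptide carrying fluorophore and quencher on opposite sides of the cleavage site and ran for one hour. Tris buffer then brought the pH to neutrality, ending the reaction, and fluorescence was measured (488 nm excitation, 590 nm emission).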

human recombinant BACE2 = human recombinant BACE2 (Homo sapiens (Human), UniProt Q9Y5Z0); experiment: In vitro enzymatic BACE2 FRET assay; format: biochemical; details: read-out: IC50 IP (μM) BACE2 enzyme
Summary of the method: as §1

[1] = tested on: Aβ40 in conditioned medium of cells stably expressing Amyloid Precursor Protein (APP); experiment: In vitro BACE-1 cell-based assay (Aβ40 sandwich ELISA); details: read-out: IC50 IP (μM) BACE1 cell
Summary of the method: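 Aβ40 in supernatants measured by time-resolved fluorescence sandwich ELISA, with pAb40 as capture and biotin-6E10 as detector antibody, each incubated at 4 °C.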

Recombinant Cat D = Recombinant Cat D (Homo sapiens (Human), UniProt P07339); experiment: In vitro enzymatic Cathepsin D (Cat D) FRET assay; format: biochemical; details: read-out: IC50 IP (μM) CatD
Summary of the method: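 Assay pH is 3.5 (0.05 M citrate, 5 mM CHAPS, 10% DMSO final) with Cat D from CHO cells. A 20 nM quenched peptide substrate is cleaved over one hour; the reaction is ended with Tris and read by fluorescence (ex 500, em 580 nm).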

Sequence of human recombinant BACE1 (P56817 46-501): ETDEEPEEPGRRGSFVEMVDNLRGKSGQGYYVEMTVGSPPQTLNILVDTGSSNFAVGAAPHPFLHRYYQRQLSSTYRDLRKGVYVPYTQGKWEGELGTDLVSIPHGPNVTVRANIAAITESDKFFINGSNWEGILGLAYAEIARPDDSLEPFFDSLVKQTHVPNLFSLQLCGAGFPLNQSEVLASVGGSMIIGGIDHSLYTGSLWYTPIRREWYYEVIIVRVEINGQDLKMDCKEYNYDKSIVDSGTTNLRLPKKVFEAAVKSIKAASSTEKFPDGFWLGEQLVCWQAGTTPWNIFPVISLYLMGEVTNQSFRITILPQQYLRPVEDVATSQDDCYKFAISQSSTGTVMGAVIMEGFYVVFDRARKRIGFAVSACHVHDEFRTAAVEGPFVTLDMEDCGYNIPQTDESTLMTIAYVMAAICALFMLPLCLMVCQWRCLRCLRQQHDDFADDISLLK
Sequence of human recombinant BACE2 (Q9Y5Z0 63-518): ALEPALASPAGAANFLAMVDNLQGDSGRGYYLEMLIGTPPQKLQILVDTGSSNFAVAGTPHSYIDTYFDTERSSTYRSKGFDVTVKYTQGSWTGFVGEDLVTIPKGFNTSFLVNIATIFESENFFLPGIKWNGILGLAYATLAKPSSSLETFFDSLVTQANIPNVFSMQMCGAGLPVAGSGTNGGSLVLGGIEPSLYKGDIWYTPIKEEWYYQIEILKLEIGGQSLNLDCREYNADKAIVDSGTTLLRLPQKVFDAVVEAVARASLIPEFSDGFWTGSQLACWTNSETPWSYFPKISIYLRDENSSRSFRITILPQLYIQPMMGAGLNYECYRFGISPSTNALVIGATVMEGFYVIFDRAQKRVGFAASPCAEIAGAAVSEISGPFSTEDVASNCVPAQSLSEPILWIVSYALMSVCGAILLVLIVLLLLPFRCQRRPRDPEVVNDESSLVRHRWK
Sequence of Recombinant Cat D (P07339 65-412): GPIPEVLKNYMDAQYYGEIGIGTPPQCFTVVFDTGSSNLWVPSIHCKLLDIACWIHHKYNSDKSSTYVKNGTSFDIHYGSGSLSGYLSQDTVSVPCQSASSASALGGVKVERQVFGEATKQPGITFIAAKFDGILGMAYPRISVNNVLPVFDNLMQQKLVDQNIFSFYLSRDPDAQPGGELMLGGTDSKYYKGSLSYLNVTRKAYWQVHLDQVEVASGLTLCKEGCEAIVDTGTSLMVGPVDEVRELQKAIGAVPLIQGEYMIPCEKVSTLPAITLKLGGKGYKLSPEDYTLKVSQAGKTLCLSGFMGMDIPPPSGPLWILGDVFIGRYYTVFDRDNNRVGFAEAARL

Row | IC50 (human recombinant BACE1) [µM] | IC50 (human recombinant BACE2) [µM] | IC50 [1] [µM] | IC50 (Recombinant Cat D) [µM] | IC50 (human recombinant BACE1; BACE1 FRET enzyme assay) [µM] | IC50 (human recombinant BACE2; BACE2 FRET enzyme assay) [µM] | IC50 ([1]; BACE1 cell-based assay) [µM] | IC50 (Recombinant Cat D; Cathepsin D FRET enzyme assay) [µM] | Compound
1 | 0.00278 | 0.848 | 0.056 | 873 |  |  |  |  | C[C@H](Oc1cnc2c(Nc3cc(F)c(F)c([C@@]4(C)N=C(N)S[C@@]5(C(F)F)C[C@@H]45)c3)nccc2n1)c1ncco1 [Example 892, N-(3-((1S,5S,6S)-3-amino-1-(difluoromethyl)-5-methyl-2-thia-4-azabicyclo[4.1.0]hept-3-en-5-yl)-4,5-difluorophenyl)-2-((1 S)-1-(1,3-oxazol-2-yl)ethoxy)pyrido[3,4-b]pyrazin-5-amine]
2 | 0.00167 | 0.0221 | 0.00967 | 496 |  |  |  |  | C#CCOc1cnc(C(=O)Nc2ccc(F)c([C@@]3(C)N=C(N)S[C@@]4(C(F)F)C[C@@H]34)c2)c(C)c1 [Example 686, N-(3-((1S,5S,6S)-3-amino-1-(difluoromethyl)-5-methyl-2-thia-4-azabicyclo[4.1.0]hept-3-en-5-yl)-4-fluorophenyl)-3-methyl-5-(2-propyn-1-yloxy)-2-pyridinecarboxamide]
3 | 0.0014 | 0.0118 | 0.0109 | 1400 |  |  |  |  | COC[C@]12C[C@H]1[C@@](C)(c1cc(NC(=O)c3cnc(OCc4nccs4)cn3)cc(F)c1F)N=C(N)S2 [Example 1034, N-(3-((1S,5S,6S)-3-amino-1-(methoxymethyl)-5-methyl-2-thia-4-azabicyclo[4.1.0]hept-3-en-5-yl)-4,5-difluorophenyl)-5-(1,3-thiazol-2-ylmethoxy)-2-pyrazinecarboxamide]
4 | 0.00361 | 0.0755 | 0.0245 | 956 |  |  |  |  | Cc1ccnc(COc2cnc3c(Nc4cc(F)c(F)c([C@@]5(C)N=C(N)S[C@@]6(C(F)F)C[C@@H]56)c4)nccc3n2)n1 [Example 874, N-(3-((1S,5S,6S)-3-amino-1-(difluoromethyl)-5-methyl-2-thia-4-azabicyclo[4.1.0]hept-3-en-5-yl)-4,5-difluorophenyl)-2-((4-methyl-2-pyrimidinyl)methoxy)pyrido[3,4-b]pyrazin-5-amine]
5 | 0.00192 | 0.00203 | 0.0167 | 603 |  |  |  |  | CON(C)C(=O)[C@]12C[C@H]1[C@@](C)(c1cc(Nc3ncnc4cc(Cl)cnc34)cc(F)c1F)N=C(N)S2 [Example 901, (1S,5S,6S)-3-amino-5-(5-((7-chloropyrido[3,2-d]pyrimidin-4-yl)amino)-2,3-difluorophenyl)-N-methoxy-N,5-dimethyl-2-thia-4-azabicyclo[4.1.0]hept-3-ene-1-carboxamide]
6 | 0.00165 | 0.0383 | 0.00737 | 1110 |  |  |  |  | C#CCOc1cnc2c(Nc3cnc(F)c([C@@]4(C)N=C(N)S[C@@]5([C@H](O)C(F)(F)F)C[C@H]54)c3)ncnc2c1 [Example 665, (1R)-1-((1S,5S,6S)-3-amino-5-(2-fluoro-5-((7-(2-propyn-1-yloxy)pyrido[3,2-d]pyrimidin-4-yl)amino)-3-pyridinyl)-5-methyl-2-thia-4-azabicyclo[4.1.0]hept-3-en-1-yl)-2,2,2-trifluoroethanol]

Continued, molecule first:

Row | Compound | IC50 (human recombinant BACE1) [µM] | IC50 (human recombinant BACE2) [µM] | IC50 [1] [µM] | IC50 (Recombinant Cat D) [µM] | IC50 (human recombinant BACE1; BACE1 FRET enzyme assay) [µM] | IC50 (human recombinant BACE2; BACE2 FRET enzyme assay) [µM] | IC50 ([1]; BACE1 cell-based assay) [µM] | IC50 (Recombinant Cat D; Cathepsin D FRET enzyme assay) [µM]
7 | COC[C@H](C)Oc1cnc(C(=O)Nc2ccc(F)c([C@@]3(C)N=C(N)S[C@@]4(COC)C[C@H]43)c2)cn1 [Example 970, N-(3-((1S,5S,6S)-3-amino-1-(methoxymethyl)-5-methyl-2-thia-4-azabicyclo[4.1.0]hept-3-en-5-yl)-4-fluorophenyl)-5-((1S)-2-methoxy-1-methylethoxy)-2-pyrazinecarboxamide] | 0.0085 | 0.333 | 0.021 | > 400 |  |  |  | 
8 | COc1cnc2c(Nc3cc(F)c(F)c([C@@]4(CF)N=C(N)S[C@H]5C[C@H]54)c3)ncnc2c1 [Example 66, N-(3-((1S,5S,6S)-3-amino-5-(fluoromethyl)-2-thia-4-azabicyclo[4.1.0]hept-3-en-5-yl)-4,5-difluorophenyl)-7-methoxypyrido[3,2-d]pyrimidin-4-amine] |  |  |  |  | 0.0171 | 0.132 | 0.0525 | > 400
9 | COC[C@]12C[C@H]1[C@@](C)(c1cc(NC(=O)c3c[nH]c(=O)cn3)cc(F)c1F)N=C(N)S2 [Example 1027, N-(3-((1S,5S,6S)-3-amino-1-(methoxymethyl)-5-methyl-2-thia-4-azabicyclo[4.1.0]hept-3-en-5-yl)-4,5-difluorophenyl)-5-oxo-4,5-dihydro-2-pyrazinecarboxamide] | 0.0196 | 0.0565 | 0.136 | 981 |  |  |  | 
10 | C[C@]1(c2cc(Nc3ncnc4cc(OCc5ncco5)cnc34)ccc2F)N=C(N)S[C@]2(CO)[C@H]1C2(F)F [Example 750, ((1S,5S,6R)-3-amino-7,7-difluoro-5-(2-fluoro-5-((7-(1,3-oxazol-2-ylmethoxy)pyrido[3,2-d]pyrimidin-4-yl)amino)phenyl)-5-methyl-2-thia-4-azabicyclo[4.1.0]hept-3-en-1-yl)methanol] | 0.0019 | 0.0404 | 0.00301 | 246 |  |  |  | 
11 | CCOC(=O)/C=C/[C@]12C[C@H]1[C@@](CF)(c1cc(NC(=O)c3ccc(Cl)cn3)ccc1F)N=C(N)S2 [Example 755, (E)-ethyl 3-((1R,5S,6S)-3-amino-5-(5-(5-chloropicolinamido)-2-fluorophenyl)-5-(fluoromethyl)-2-thia-4-azabicyclo[4.1.0]hept-3-en-1-yl)acrylate] | 0.00147 | < 0.00203 | 0.00838 | 250 |  |  |  | 
12 | C[C@]1(c2cc(NC(=O)c3ccc(Cl)cn3)ccc2F)N=C(N)S[C@@]2(CF)C[C@H]21 [Example 821, N-(3-((1S,5S,6S)-3-amino-1-(fluoromethyl)-5-methyl-2-thia-4-azabicyclo[4.1.0]hept-3-en-5-yl)-4-fluorophenyl)-5-chloro-2-pyridinecarboxamide] | 0.00298 | < 0.00203 | 0.00428 | 1170 |  |  |  | 
13 | CC#CCOc1cnc(C(=O)Nc2cc(F)c(F)c([C@@]3(C)N=C(N)S[C@@]4(CO)C[C@H]43)c2)c(C)c1 [Example 85, N-(3-((1S,5S,6S)-3-amino-1-(hydroxymethyl)-5-methyl-2-thia-4-azabicyclo[4.1.0]hept-3-en-5-yl)-4,5-difluorophenyl)-5-(2-butyn-1-yloxy)-3-methyl-2-pyridinecarboxamide] |  |  |  |  | 0.00062 | 0.0435 | 0.00216 | 1550
14 | COC[C@]12C[C@H]1[C@@](C)(c1cc(NC(=O)c3cnc(OCc4ccccc4)cn3)cc(F)c1F)N=C(N)S2 [Example 1033, N-(3-((1S,5S,6S)-3-amino-1-(methoxymethyl)-5-methyl-2-thia-4-azabicyclo[4.1.0]hept-3-en-5-yl)-4,5-difluorophenyl)-5-(benzyloxy)-2-pyrazinecarboxamide] | 0.00105 | 0.0323 | 0.101 | 230 |  |  |  | 
15 | C#CCOc1cnc2c(Nc3ccc(F)c([C@@]4(CF)N=C(N)S[C@@]5(c6ocnc6C)C[C@@H]45)c3)ncnc2c1 [Example 788, N-(3-((1S,5S,6S)-3-amino-5-(fluoromethyl)-1-(4-methyl-1,3-oxazol-5-yl)-2-thia-4-azabicyclo[4.1.0]hept-3-en-5-yl)-4-fluorophenyl)-7-(2-propyn-1-yloxy)pyrido[3,2-d]pyrimidin-4-amine] | 0.00127 | 0.0122 | 0.0161 | 485 |  |  |  | 
16 | NC1=N[C@](CF)(c2cc(NC(=O)c3ccc(Cl)cn3)ccc2F)[C@@H]2C[C@]2(/C=C/CO)S1 [Example 756, N-(3-((1R,5S,6S)-3-amino-5-(fluoromethyl)-1-((E)-3-hydroxyprop-1-en-1-yl)-2-thia-4-azabicyclo[4.1.0]hept-3-en-5-yl)-4-fluorophenyl)-5-chloropicolinamide] | 0.00373 | < 0.00203 | 0.00659 | > 400 |  |  |  | 
17 | COC[C@]12C[C@H]1[C@@](C)(c1cc(NC(=O)c3cnc(OCc4nnc(C)o4)cn3)cc(F)c1F)N=C(N)S2 [Example 1037, N-(3-((1S,5S,6S)-3-amino-1-(methoxymethyl)-5-methyl-2-thia-4-azabicyclo[4.1.0]hept-3-en-5-yl)-4,5-difluorophenyl)-5-((5-methyl-1,3,4-oxadiazol-2-yl)methoxy)-2-pyrazinecarboxamide] | 0.000803 | 0.128 | 0.0467 | 785 |  |  |  | 
18 | COC[C@]12C[C@H]1[C@@](C)(c1cc(NC(=O)c3cnc(OCC4CCO4)cn3)cc(F)c1F)N=C(N)S2 (stereo partly drawn) [Example 1029, N-(3-((1S,5S,6S)-3-amino-1-(methoxymethyl)-5-methyl-2-thia-4-azabicyclo[4.1.0]hept-3-en-5-yl)-4,5-difluorophenyl)-5-(oxetan-2-ylmethoxy)pyrazine-2-carboxamide] | 0.00741 | 0.459 | 0.0541 | 1140 |  |  |  | 
